Data from patent US10542753B2, “Compositions for improving budbreak and flowering” (Zelam Limited, priority 2015, dated 2020).

Key:
[1] = Pahokee muck soil under varying agricultural practices; cited from earlier work
[2] = cited from earlier work
[3] = system: Granny Smith Apples; assay: Trial 8: sprayed trees, budbreak, flowering and fruit set on fruiting spurs; type: in vivo
Method: Trial 8: Use on Granny Smith Apples was evaluated in New Plymouth, New Zealand following a poor winter chill in 2013. Treatments were applied on 9 Aug. 2013 at 200 L/Ha using a manual backpack sprayer in a replicated trial (4 replications of two tree plots).

[4] = system: Gold3; assay: Trial 6: sprayed trial after good winter chill (Hawkes Bay); type: in vivo, Actinidia chinensis Planch. var. chinensis 'Zesy002'
Method: (§1) These 2014 sprayed trials were performed in the Bay of Plenty (Trial 5, five replicates, each a bay comprising two vines with ten assessment canes per rep, five on each side of the bay) and Hawkes Bay, NZ (Trial 6, four replicates, each a bay comprising four vines with twenty assessment canes per rep, five from each vine). HC (700 litres/Ha) and Examples 9 and 10 (800 litres/Ha) were sprayed on 16-Aug (37 DBNB, Trial 5) and 11-Aug (30 DBNB, Trial 6). FIG. 7 illustrates the progression of budbreak in Trial 5 and FIG. 8 illustrates the progression of budbreak in Trial 6.
(§2) Under current management practices Gold3 growers require at least about 1.8 single flowers per winter bud (SFWB) to achieve the recommended packout of 17,000 trays/Ha.

[5] = system: Gold3; assay: Trial 5: sprayed trial after poor winter chill (Bay of Plenty); type: in vivo, Actinidia chinensis Planch. var. chinensis 'Zesy002'
Method: as §1, §2

[6] = system: Hayward kiwifruit; assay: Trial 1: cane painting, budbreak and flowering; type: in vivo, Actinidia deliciosa; conditions: for Spread of BB: spread = 4x standard deviation; for Advance in Midpoint / Reduction in Spread: vs untreated
Method: A cane painting experiment was performed in a Hayward kiwifruit orchard in the Bay of Plenty New Zealand in 2010 following a winter with average winter chill. Low-medium vigour canes of 1.6 m average length from 36 vines were tagged and either left untreated or painted with one of HC, Examples 1-4 and Comparative Example 1. The date of painting (6-Aug) was 56 days before natural budbreak (DBNB). Budbreak (BBCH stage 9) and flowering (BBCH stage 60) were determined based on the photographs published by Salinero et al., 2009, “Phenological growth stages of kiwifruit (Actinidia deliciosa ‘Hayward’)”, Scientia Horticulturae 121, 27-31, which is hereby incorporated by reference in its entirety. Graphed and tabulated data represent averages of the 36 replicates and are normalised based on the number of winter buds on each cane.
FIG. 1 illustrates the progression of budbreak in Trial 1. FIG. 2 illustrates the progression of flowering in Trial 1. The progress curves depicted in FIGS. 1 and 2 were fitted to a cumulative normal curve to calculate the midpoints of budbreak and flowering (the dates corresponding to a 50% response) and spread of response time (defined as 4× standard deviation) as summarised in Tables 1 and 2.

[7] = system: Hayward kiwifruit vines; assay: Trial 2: cane painting, salicylic acid dose-response, budbreak; type: in vivo, Actinidia deliciosa
Method: A cane painting experiment was performed in 2012 in a Hayward kiwifruit orchard in Taranaki, New Zealand. Canes of 1.2 m average length from 33 vines were tagged and either left untreated or painted with one of HC, Examples 5-8 and Comparative Examples 2 and 3 on 9-Aug, 50 DBNB (28-Sep). Midpoints and spread were calculated for budbreak (Table 3) but there were insufficient data to perform the calculations for flowering. […] FIG. 3 illustrates the progression of budbreak in Trial 2. FIG. 4 illustrates the progress of flowering in Trial 2.

[8] = system: Psa; assay: Trial 3: whole-vine spray in Psa-infected orchard, Psa leaf spotting; type: in vivo, Hayward kiwifruit vines; conditions: for % Incidence: Psa leaf spotting
Source text: A trial in which whole Hayward kiwifruit vines were sprayed was established in the Bay of Plenty in 2013. There were twelve replicates and two sets of untreated vines. HC (700 litres/Ha) and the composition of Example 8 (800 litres/Ha) were applied on three dates using a boom sprayer designed to produce spray deposition typical of an orchard air blast sprayer. Of particular interest in this trial was the prevalence of Psa leaf spotting that became evident in late spring, particularly in the early HC-sprayed vines. Vines were assessed for Psa leaf spotting by rating 40 randomly selected leaves (10 on each side of the two leaders that made up each vine) on a 1-5 scale (Table 4).

[9] = system: Gold3 kiwifruit; assay: Trial 4: cane painting, budbreak and flowering; type: in vivo, Actinidia chinensis Planch. var. chinensis 'Zesy002'; parameters: Spread of BB / Advance in Midpoint / Reduction in Spread: unit not given here; conditions: for KFFS: king flowers per floral shoot; for KFWB: king flowers per winter bud; for Advance in Midpoint / Reduction in Spread: vs untreated
Method: This cane painting experiment was performed in a Bay of Plenty orchard in 2013 following a winter with poor chill in the key months of May and June. Low-medium vigour canes typical of the orchard were painted with either HC or Example 9 on 13-Aug and 20-Aug, 34 and 27 days before natural budbreak which occurred on 16-Sep. […] FIG. 5 illustrates the progression of budbreak and FIG. 6 illustrates the progress of flowering in Trial 4.

[10] = Trial 5, Bay of Plenty, poor winter chill

Question: Which Biodegradation [1] does the source give for `O=C(O)c1ccccc1O` [Salicylic acid, salicylic acid] here?
Answer: Its Biodegradation is “rapid”.

Question: What about the Solubility in ethanol ([2]; 21° C.) of the same molecule?
Answer: Its Solubility in ethanol is 34.87 % w/w.

Question: What about the Solubility in propanol ([2]; 21° C.) of the same molecule?
Answer: Its Solubility in propanol is 27.36 % w/w.

Question: And the Solubility in benzene ([2]; 25° C.)?
Answer: The Solubility in benzene was 0.775 % w/w.

Question: What does the source list for `N#CN` [HC, hydrogen cyanamide]?
Answer: % Budbreak 28 DAA ([3]; 28 DAA): 14%; % Budbreak 39 DAA ([3]; 39 DAA): 39%; % Budbreak 47 DAA ([3]; 47 DAA): 34%; % Flowering 54 DAA ([3]; 54 DAA): 66%; % Fruit set 74 DAA ([3]; 74 DAA): 16%; frequency of laterals (in words) ([4]; Trial 6, Hawkes Bay, good winter chill): further increased; % Laterals ([4]; in vivo): 31.2%; KFWB ([4]; king flowers per winter bud): 2.61; SFWB ([4]; single flowers per winter bud): 1.8; % Budbreak ([4]; sprayed 11-Aug (30 DBNB)): 55.9%; flower numbers (in words) [5, 10]: excessive flower numbers; frequency of double and triple flowers / laterals (in words) [5, 10]: nearly doubled; % Double flowers ([5]; in vivo): 14.4%; % Laterals ([5]; in vivo): 18.7%; % Triple flowers ([5]; in vivo): 4.3%; KFWB ([5]; king flowers per winter bud): 3.1; SFWB ([5]; single flowers per winter bud): 2.5; % Budbreak ([5]; sprayed 16-Aug (37 DBNB)): 56.9%; Spread of BB ([6]; Table 2, flowering): 7; Advance in Midpoint ([6]; Table 2, flowering): 6; Reduction in Spread ([6]; Table 2, flowering): 9; Spread of BB ([6]; budbreak): 17; Advance in Midpoint ([6]; budbreak): 16; Reduction in Spread ([6]; budbreak): 32; budbreak response (in words) ([7]; Trial 2, FIG. 3, vs untreated): improved considerably; Spread of BB ([7]; budbreak): 19; Advance in Midpoint ([7]; budbreak, vs untreated): 12; Reduction in Spread ([7]; budbreak, vs untreated): 7; change in Psa leaf spotting (ANOVA, in words) ([8]; HC after the first two applications, Example 8 at all application dates): significant increase; % Incidence ([8]; applied 15-Aug (46 DBNB)): 51.5 a %; % Incidence ([8]; applied 24-Aug (37 DBNB)): 21.7 b %; % Incidence ([8]; applied 30-Aug (31 DBNB)): 18.3 bc %; Leaf spotting score ([8]; applied 15-Aug (46 DBNB), 40 leaves rated on 1-5 scale): 1.15 a; Leaf spotting score ([8]; applied 24-Aug (37 DBNB)): 0.42 b; Leaf spotting score ([8]; applied 30-Aug (31 DBNB)): 0.31 bc; frequency of lateral flowers (doubles and triples) (in words) ([9]; Trial 4): increased the frequency of lateral flowers; king flowers per winter bud (KFWB) (in words) ([9]; Trial 4, vs untreated): large increases; KFFS ([9]; painted 27 DBNB (20-Aug)): 2.35; KFFS ([9]; painted 34 DBNB (13-Aug)): 2.90; KFWB ([9]; painted 27 DBNB (20-Aug)): 1.19; KFWB ([9]; painted 34 DBNB (13-Aug)): 1.48; % Budbreak ([9]; painted 27 DBNB (20-Aug)): 72.1%; % Deformed ([9]; painted 27 DBNB (20-Aug)): 0.2%; % Laterals ([9]; painted 27 DBNB (20-Aug)): 1.8%; Floral shoots ([9]; painted 27 DBNB (20-Aug)): 71%; Spread of BB ([9]; painted 27 DBNB (20-Aug)): 24; Advance in Midpoint ([9]; painted 27 DBNB (20-Aug)): 15; Reduction in Spread ([9]; painted 27 DBNB (20-Aug)): 17; % Budbreak ([9]; painted 34 DBNB (13-Aug)): 64.5%; % Deformed ([9]; painted 34 DBNB (13-Aug)): 1.7%; % Laterals ([9]; painted 34 DBNB (13-Aug)): 9.9%; Floral shoots ([9]; painted 34 DBNB (13-Aug)): 83%; Spread of BB ([9]; painted 34 DBNB (13-Aug)): 12; Advance in Midpoint ([9]; painted 34 DBNB (13-Aug)): 19; Reduction in Spread ([9]; painted 34 DBNB (13-Aug)): 30
